Measurements: ChEMBL document CHEMBL3885861, “Open TG-GATES”

Organism: Rattus norvegicus
Assay: Open TG-GATES - Regimen: Daily Repeat
Type: toxicity, organism-based, Sprague-Dawley
Parameters: regimen Daily Repeat, gender Male, age 6 weeks
Settings: in vivo, po, 0 mg/kg, route gavage, dose level Control; for APTT / Bas / Eos / Fbg / Hb / Ht / Lym / MCH / MCHC / MCV / Mono / Neu / PT / Plat / RBC / Ret / WBC: tissue Blood
[1] = 72 h, tissue Kidney, time 3 day
[2] = 72 h, tissue Plasma, time 3 day

CCCCNC(=O)NS(=O)(=O)c1ccc(C)cc1 [TOLBUTAMIDE]
TERMINAL_BW (72 h, time 3 day): 235.2 g | APTT (72 h, time 3 day): 16.5 s | Bas (72 h, time 3 day): 0.2% | Eos (72 h, time 3 day): 1% | Fbg (72 h, time 3 day): 315.4 mg/dL | Hb (72 h, time 3 day): 14 g/dL | Ht (72 h, time 3 day): 43.2% | Lym (72 h, time 3 day): 74.6% | MCH (72 h, time 3 day): 20.4 pg | MCHC (72 h, time 3 day): 32.4% | MCV (72 h, time 3 day): 63 fL | Mono (72 h, time 3 day): 2.2% | Neu (72 h, time 3 day): 21.6% | PT (72 h, time 3 day): 13 s | Plat (72 h, time 3 day): 112.3 x10_4/uL | RBC (72 h, time 3 day): 686.4 x10_4/ul | Ret (72 h, time 3 day): 6.8% | WBC (72 h, time 3 day): 101.6 x10_2/uL | KIDNEY_L [1]: 1 g | KIDNEY_R [1]: 1 g | KIDNEY_TOTAL [1]: 2 g | LIVER (72 h, tissue Liver, time 3 day): 10.6 g | A/G [2]: 0.9 | ALP [2]: 1867 IU/L | ALT [2]: 51 IU/L | AST [2]: 75.2 IU/L | BUN [2]: 15 mg/dL | CRE [2]: 0.2 mg/dL | Ca [2]: 11.3 mg/dL | Cl [2]: 105.2 meq/L | DBIL [2]: 0.014 mg/dL | GLC [2]: 179 mg/dL | IP [2]: 8.9 mg/dL | K [2]: 4.1 meq/L | LDH [2]: 64.4 IU/L | Na [2]: 143.6 meq/L | PL [2]: 149.8 mg/dL | RALB [2]: 2.7 g/dL | TBIL [2]: 0.066 mg/dL | TC [2]: 79 mg/dL | TG [2]: 79.2 mg/dL | TP [2]: 5.7 g/dL | gamma-GTP [2]: 1 IU/L | TERMINAL_BW ([…], time 7 day): 272.6 g | TERMINAL_BW ([…], time 14 day): 338.7 g | TERMINAL_BW ([…], time 28 day): 414.9 g | APTT ([…], time 7 day): 17 s | Bas ([…], time 7 day): 0.4% | Eos ([…], time 7 day): 1% | Fbg ([…], time 7 day): 274.8 mg/dL | Hb ([…], time 7 day): 13.6 g/dL | Ht ([…], time 7 day): 41% | Lym ([…], time 7 day): 80% | MCH ([…], time 7 day): 20.8 pg | MCHC ([…], time 7 day): 33.3% | MCV ([…], time 7 day): 62.4 fL | Mono ([…], time 7 day): 2.6% | Neu ([…], time 7 day): 15.6% | PT ([…], time 7 day): 13 s | Plat ([…], time 7 day): 127.5 x10_4/uL | RBC ([…], time 7 day): 657.4 x10_4/ul | Ret ([…], time 7 day): 5.7% | WBC ([…], time 7 day): 127.9 x10_2/uL | APTT ([…], time 14 day): 17.6 s | Bas ([…], time 14 day): 0.2% | Eos ([…], time 14 day): 1% | Fbg ([…], time 14 day): 284 mg/dL | Hb ([…], time 14 day): 14.4 g/dL | Ht ([…], time 14 day): 43.7% | Lym ([…], time 14 day): 78.4% | MCH ([…], time 14 day): 19.9 pg | MCHC ([…], time 14 day): 32.8% | MCV ([…], time 14 day): 60.7 fL | Mono ([…], time 14 day): 1.8% | Neu ([…], time 14 day): 18% | PT ([…], time 14 day): 13 s | Plat ([…], time 14 day): 124.7 x10_4/uL | RBC ([…], time 14 day): 721.4 x10_4/ul | Ret ([…], time 14 day): 4.4% | WBC ([…], time 14 day): 108 x10_2/uL | APTT ([…], time 28 day): 18.4 s | Bas ([…], time 28 day): 0.2% | Eos ([…], time 28 day): 1% | Fbg ([…], time 28 day): 277 mg/dL | Hb ([…], time 28 day): 15.8 g/dL | Ht ([…], time 28 day): 47.1%
